{
  "source": "paper PMC4503722",
  "about": "“Novel Phenotypic Outcomes Identified for a Public Collection of Approved Drugs from a Publicly Accessible Panel of Assays” (PLoS ONE, 2015)",
  "key": {"INS-1E cells": {"tested_on": "INS-1E cells", "test": "cells", "type": "cell-based, rat"}, "[1]": {"tested_on": "endothelial tube formation in co-cultures of ECFCs and ADSCs treated with VEGF", "test": "cells", "type": "cell-based, human"}, "HeLa cells": {"tested_on": "HeLa cells", "test": "cells", "type": "cell-based"}, "DLD-1": {"tested_on": "DLD-1", "test": "cells", "type": "cell-based"}, "SW480": {"tested_on": "SW480", "test": "cells", "type": "cell-based"}, "HCT116": {"tested_on": "HCT116", "test": "cells", "type": "cell-based"}, "[2]": {"tested_on": "HCT116 cells treated with a GSK3β inhibitor", "test": "cells", "type": "cell-based"}, "Colo320": {"tested_on": "Colo320", "test": "cells", "type": "cell-based"}, "HT-29": {"tested_on": "HT-29", "test": "cells", "type": "cell-based"}, "RKO": {"tested_on": "RKO", "test": "cells", "type": "cell-based"}, "SNU-C1": {"tested_on": "SNU-C1", "test": "cells", "type": "cell-based"}, "[3]": {"tested_on": "ECFC/ADSC co-culture cell nuclei number"}},
  "note": "Where two headings read alike, the source gives them in different places.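 Wherever 5mMGluc INS1E SecretionMod IC50/EC50 is given: secreted insulin quantified by homogeneous immunoassay.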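 Wherever IC50/EC50, 5mMGluc INS1E SecretionMod (assay number 8) is given: secreted insulin quantified by homogeneous immunoassay.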",
  "data": [
    {"smiles": "COc1ccc2c(c1OC)C(=O)O[C@@H]2[C@H]1c2cc3c(cc2CCN1C)OCO3", "note": "[NCGC00017326-05]", "values": [
      {"measurement": "5mMGluc_INS1E SecretionMod IC50/EC50", "setting": "INS-1E cells; assay number 8, 5 mM glucose", "result": "> 33.33", "unit": "µM"}
    ]},
    {"smiles": "CN1CCC(N(Cc2cccs2)c2ccccc2)CC1", "note": "[NCGC00183847-01]", "values": [
      {"measurement": "5mMGluc_INS1E SecretionMod IC50/EC50", "setting": "INS-1E cells", "result": 20.3958, "unit": "µM"}
    ]},
    {"smiles": "CC(=O)c1ccc2c(c1)N(CCCN(C)C)c1ccccc1S2", "note": "[NCGC00016634-04]", "values": [
      {"measurement": "5mMGluc_INS1E SecretionMod IC50/EC50", "setting": "INS-1E cells; assay number 8, 5 mM glucose", "result": 11.3835, "unit": "µM"}
    ]},
    {"smiles": "COc1ccc2c(c1)C(=O)N(CCc1ccc(S(=O)(=O)NC(=O)NC3CCCCC3)cc1)C(=O)C2(C)C", "note": "[NCGC00016819-05]", "values": [
      {"measurement": "5mMGluc_INS1E SecretionMod IC50/EC50", "setting": "INS-1E cells; assay number 8, 5 mM glucose", "result": 0.2299, "unit": "µM"}
    ]},
    {"smiles": "CN1CCN2c3ccccc3Cc3ccccc3C2C1", "note": "(stereo not drawn) [NCGC00015656-12]", "values": [
      {"measurement": "5mMGluc_INS1E SecretionMod IC50/EC50", "setting": "INS-1E cells; assay number 8, 5 mM glucose", "result": "> 11.11", "unit": "µM"}
    ]},
    {"smiles": "CNCCCCOc1ccccc1Cc1ccccc1", "note": "[NCGC00024778-02]", "values": [
      {"measurement": "5mMGluc_INS1E SecretionMod IC50/EC50", "setting": "INS-1E cells; assay number 8, 5 mM glucose", "result": "> 33.33", "unit": "µM"}
    ]},
    {"smiles": "CN1CCN(CCC(=O)N2c3ccccc3Sc3ccc(C(F)(F)F)cc32)CC1", "note": "[NCGC00160483-02]", "values": [
      {"measurement": "5mMGluc_INS1E SecretionMod IC50/EC50", "setting": "INS-1E cells; assay number 8, 5 mM glucose", "result": "> 11.11", "unit": "µM"}
    ]},
    {"smiles": "COc1ccccc1N1CCN(CCCCNC(=O)c2ccc(-c3ccc(C(C)=O)cc3)cc2)CC1", "note": "[NCGC00025004-04]", "values": [
      {"measurement": "5mMGluc_INS1E SecretionMod IC50/EC50", "setting": "INS-1E cells; assay number 8, 5 mM glucose", "result": "> 33.33", "unit": "µM"}
    ]},
    {"smiles": "CN(C)CCN1C(=O)c2ccccc2N(C)c2ccccc21", "note": "[NCGC00160395-04]", "values": [
      {"measurement": "IC50/EC50, 5mMGluc_INS1E SecretionMod (assay number 8)", "setting": "INS-1E cells; 5 mM glucose", "result": "> 33.33", "unit": "µM"}
    ]},
    {"smiles": "CCCC(CCC)C(=O)O", "note": "[NCGC00162288-07]", "values": [
      {"measurement": "IC50/EC50, 5mMGluc_INS1E SecretionMod (assay number 8)", "setting": "INS-1E cells; 5 mM glucose", "result": "> 33.33", "unit": "µM"}
    ]},
    {"smiles": "C[C@@H](C1=C(CCN(C)C)Cc2ccccc21)c1ccccn1.O=C(O)/C=C\\C(=O)O", "note": "[NCGC00025158-02]", "values": [
      {"measurement": "5mMGluc_INS1E SecretionMod IC50/EC50", "setting": "INS-1E cells; assay number 8, 5 mM glucose", "result": 8.4103, "unit": "µM"}
    ]},
    {"smiles": "Cc1cc(-n2nc3ccc(Cl)cc3n2)c(O)c(C(C)(C)C)c1", "note": "[NCGC00166260-03]", "values": [
      {"measurement": "5mMGluc_INS1E SecretionMod IC50/EC50", "setting": "INS-1E cells; assay number 8, 5 mM glucose", "result": "> 33.33", "unit": "µM"}
    ]},
    {"smiles": "O=C(CCN1CCN2CCCC2C1)N1c2ccccc2Sc2ccc(Cl)cc21", "note": "(stereo not drawn) [NCGC00164539-02]", "values": [
      {"measurement": "5mMGluc_INS1E SecretionMod IC50/EC50", "setting": "INS-1E cells; assay number 8, 5 mM glucose", "result": 16.7552, "unit": "µM"}
    ]},
    {"smiles": "COCCCOc1ccnc(C[S+]([O-])c2nc3ccccc3[n-]2)c1C.[Na+]", "note": "(stereo not drawn) [NCGC00159518-05]", "values": [
      {"measurement": "IC50/EC50, 5mMGluc_INS1E SecretionMod (assay number 8)", "setting": "INS-1E cells; 5 mM glucose", "result": "> 33.33", "unit": "µM"}
    ]},
    {"smiles": "COc1ccc(Cl)cc1C(=O)NCCc1ccc(S(=O)(=O)NC(=O)NC2CCCCC2)cc1", "note": "[NCGC00015467-20]", "values": [
      {"measurement": "IC50/EC50, 5mMGluc_INS1E SecretionMod (assay number 8)", "setting": "INS-1E cells; 5 mM glucose", "result": 0.00808, "unit": "µM"}
    ]},
    {"smiles": "CCO[C@H](Cc1ccc(OCCc2ccc(OS(C)(=O)=O)cc2)cc1)C(=O)O", "note": "[NCGC00182082-03]", "values": [
      {"measurement": "5mMGluc_INS1E SecretionMod IC50/EC50", "setting": "INS-1E cells; assay number 8, 5 mM glucose", "result": "> 33.33", "unit": "µM"}
    ]},
    {"smiles": "CC(C)=CCOc1ccc(/C=C/C(=O)c2ccc(OCC=C(C)C)cc2OCC(=O)O)cc1", "note": "[NCGC00159481-03]", "values": [
      {"measurement": "VEGF_ADSC\\ECFC Angio CD31 TubeArea IC50/EC50", "setting": "[1]", "result": "> 10", "unit": "µM"},
      {"measurement": "Hela CellCycMod PI 2N IC50/EC50", "setting": "HeLa cells", "result": "> 10", "unit": "µM"},
      {"measurement": "Hela CellCycMod PI 4N IC50/EC50", "setting": "HeLa cells", "result": "> 10", "unit": "µM"},
      {"measurement": "Hela CellCycMod PI Cell Number IC50/EC50", "setting": "HeLa cells", "result": "> 10", "unit": "µM"},
      {"measurement": "Hela CellCycMod PI MI IC50/EC50", "setting": "HeLa cells", "result": "> 10", "unit": "µM"},
      {"measurement": "Hela CellCycMod PI S Phase IC50/EC50", "setting": "HeLa cells", "result": "> 10", "unit": "µM"},
      {"measurement": "Basal_Viability ATP DLD-1 IC50/EC50", "setting": "DLD-1", "result": 5.3614, "unit": "µM"},
      {"measurement": "Basal_Viability ATP SW480 IC50/EC50", "setting": "SW480", "result": 2.9193, "unit": "µM"},
      {"measurement": "Basal_Viability ATP HCT116 IC50/EC50", "setting": "HCT116", "result": "> 6.667", "unit": "µM"},
      {"measurement": "GSK3b inh pretreated_Viability ATP HCT116 IC50/EC50", "setting": "[2]", "result": 3.0351, "unit": "µM"},
      {"measurement": "Basal_Viability ATP Colo 320 IC50/EC50", "setting": "Colo320", "result": 1.5527, "unit": "µM"},
      {"measurement": "Basal_Viability ATP HT-29 IC50/EC50", "setting": "HT-29", "result": 5.3973, "unit": "µM"},
      {"measurement": "Basal_Viability ATP RKO IC50/EC50", "setting": "RKO", "result": 5.5335, "unit": "µM"},
      {"measurement": "Basal_Viability ATP SNU-C1 IC50/EC50", "setting": "SNU-C1", "result": 7.4428, "unit": "µM"},
      {"measurement": "VEGF_ADSC\\ECFC Angio Hoechst NucArea IC50/EC50", "setting": "[3]", "result": "> 10", "unit": "µM"}
    ]},
    {"smiles": "CCCN1CCCC[C@H]1C(=O)Nc1c(C)cccc1C", "note": "[NCGC00164597-02]", "values": [
      {"measurement": "5mMGluc_INS1E SecretionMod IC50/EC50", "setting": "INS-1E cells; assay number 8, 5 mM glucose", "result": "> 33.33", "unit": "µM"}
    ]},
    {"smiles": "CCC1=C(C)CN(C(=O)NCCc2ccc(S(=O)(=O)NC(=O)NC3CCC(C)CC3)cc2)C1=O", "note": "(stereo not drawn) [NCGC00016960-07]", "values": [
      {"measurement": "5mMGluc_INS1E SecretionMod IC50/EC50", "setting": "INS-1E cells; assay number 8, 5 mM glucose", "result": 0.00406, "unit": "µM"}
    ]}
  ]
}
